Test results reported in the NIST ThermoML archive (doi:10.1016/j.jct.2009.12.002).
“And” between values parts separate entries of the source, which are not always exact repeats. Equal values may be shown once.

Settings: Liquid; for mass density: 101.33 kPa, Pycnometric method; for speed of sound: Pulse-echo method

CC(C)CCCCCCCOC(=O)c1ccccc1C(=O)OCCCCCCCC(C)C
Settings | mass density
273.84 K | 980.22 kg/m3
274.06 K | 980.07 kg/m3
274.07 K | 980.08 kg/m3
274.35 K | 979.86 kg/m3
282.95 K | 973.75 kg/m3
298.25 K | 962.88 kg/m3
298.28 K | 962.83 kg/m3
305.26 K | 957.83 kg/m3
313.27 K | 952.21 kg/m3 and 952.15 kg/m3
333.28 K | 937.93 kg/m3
353.29 K | 923.76 kg/m3
373.29 K | 909.62 kg/m3
393.31 K | 895.47 kg/m3
413.33 K | 881.29 kg/m3

Settings | speed of sound [m/s]
293.06 K, 1185 kPa | 1436.6
298.08 K, 1100 kPa | 1419.9
298.08 K, 5400 kPa | 1439
298.08 K, 10180 kPa | 1459.7
298.08 K, 16980 kPa | 1488
298.08 K, 25560 kPa | 1522
298.08 K, 32760 kPa | 1549.3
298.08 K, 40150 kPa | 1576.5
298.08 K, 47800 kPa | 1602.9
298.08 K, 55510 kPa | 1629.7
298.08 K, 62350 kPa | 1652.4
313.18 K, 1050 kPa | 1367.8
313.18 K, 1110 kPa | 1367.9
313.18 K, 15410 kPa | 1432.5
313.18 K, 29860 kPa | 1491.8
313.18 K, 44860 kPa | 1548.5
313.18 K, 60370 kPa | 1602.9
313.18 K, 75510 kPa | 1652.4
313.18 K, 89970 kPa | 1697
313.18 K, 105660 kPa | 1742.8
313.18 K, 119950 kPa | 1782.4
333.24 K, 1100 kPa | 1304.1
333.24 K, 1130 kPa | 1304.1
333.24 K, 14910 kPa | 1370.1
333.24 K, 29760 kPa | 1434.3
333.24 K, 45000 kPa | 1494.4
333.24 K, 60580 kPa | 1551.1
333.24 K, 75550 kPa | 1601.7
333.24 K, 90480 kPa | 1649.2
333.24 K, 105430 kPa | 1694
333.24 K, 120280 kPa | 1736.3
333.24 K, 139660 kPa | 1788.5
353.18 K, 1010 kPa | 1241.9
353.18 K, 1280 kPa | 1243.1
353.18 K, 10060 kPa | 1288.5
353.18 K, 19830 kPa | 1335.3
353.18 K, 29890 kPa | 1380.3
353.18 K, 40170 kPa | 1423.1
353.18 K, 50230 kPa | 1462.7
353.18 K, 60350 kPa | 1500.4
353.18 K, 70310 kPa | 1535.6
353.18 K, 80170 kPa | 1569
353.18 K, 90020 kPa | 1601
353.18 K, 104640 kPa | 1646
353.18 K, 122120 kPa | 1697.1
353.18 K, 139450 kPa | 1745
373.1 K, 460 kPa | 1179.1
373.1 K, 1150 kPa | 1183.1
373.1 K, 1350 kPa | 1184.4
373.1 K, 10370 kPa | 1233.7
373.1 K, 20030 kPa | 1282.4
373.1 K, 29930 kPa | 1328.6
373.1 K, 40300 kPa | 1373.8
373.1 K, 50050 kPa | 1413.5
373.1 K, 60040 kPa | 1452
373.1 K, 70060 kPa | 1488.7
373.1 K, 80050 kPa | 1523.7
373.1 K, 90060 kPa | 1557.2
373.1 K, 100440 kPa | 1590.2
373.1 K, 110260 kPa | 1620.7
373.1 K, 120180 kPa | 1649.7
373.1 K, 130570 kPa | 1679.6
373.1 K, 140300 kPa | 1707
393.54 K, 1240 kPa | 1125.2
393.54 K, 1280 kPa | 1125.4
393.54 K, 14940 kPa | 1203.3
393.54 K, 29730 kPa | 1277.1
393.54 K, 44510 kPa | 1343.3
393.54 K, 59690 kPa | 1404.8
393.54 K, 75010 kPa | 1462
393.54 K, 104930 kPa | 1563
393.54 K, 122450 kPa | 1616.7
393.54 K, 139770 kPa | 1666.6
413.41 K, 1110 kPa | 1069.6
413.41 K, 1130 kPa | 1069.8
413.41 K, 14800 kPa | 1152.3
413.41 K, 29640 kPa | 1229.8
413.41 K, 45070 kPa | 1301.7
413.41 K, 60270 kPa | 1365.4
413.41 K, 75540 kPa | 1423.9
413.41 K, 90150 kPa | 1476
413.41 K, 105150 kPa | 1526
413.41 K, 119720 kPa | 1571.9
413.41 K, 139510 kPa | 1630.3
